What is called EC50 is the concentration needed to bring the measured effect to its halfway point.

The test system of experiment [1] is HCV genotype 1b (Con1) replicon in HUH-7 cells. The experiment in a line: HCV replicon luciferase reporter assay, genotype 1b. It is filed as cell-based. The note with it: Hepatitis C virus, 72 h, genotype 1b replicon, 3 days incubation. An outline of the steps: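 Twenty-point, threefold compound titrations (0.5% DMSO) were incubated 3 days at 37 °C with 3.0×10^3 HUH-7 cells/well in 4% FCS. The cells stably carried luciferase replicons: genotype 1b Con1 (S1179I) or 1a H77 (NS3 P1496L, NS5A S2204I). Renilla signal was read after 2 h with 7.5 μM EnduRen, and EC50 was taken from a four-parameter logistic fit. Cytotoxicity (CC50) was measured by Cell Titer-Blue, 8 h.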
A general note: Replicon systems follow genome replication, usually without infectious particles.

The test system of experiment [2] is HCV genotype 1a (H77 strain) replicon in HUH-7 cells. The experiment in a line: HCV replicon luciferase reporter assay, genotype 1a. The class given is cell-based. The conditions noted are these: Hepatitis C virus, 72 h, genotype 1a replicon, 3 days incubation. The source says: An HCV replicon whole cell system was established as described by Lohmann V, Korner F, Koch J, Herian U, Theilmann L, Bartenschlager R., Science 285(5424):110-3 (1999) and modified to introduce a luciferase reporter, as first described by Krieger et al (Krieger N, Lohmann V, and Bartenschlager R, J. Virol. 75(10):4614-4624 (2001)). CDNA encoding a humanized form of the Renilla luciferase gene and a linker sequence fused directly to the 3′-end of the luciferase gene were introduced into the replicon construct using an Asc1 restriction site located in core, directly upstream of the neomycin marker gene. The adaptive mutation at position 1179 (serine to isoleucine) was also introduced (Blight K J, Kolykhalov, A A, Rice, C M, Science 290(5498):1972-1974). A stable cell line constitutively expressing this HCV replicon construct was generated by first linearizing plasmid DNAs with ScaI. RNA transcripts were synthesized in vitro using the T7 MegaScript transcription kit (Ambion, Austin, Tex.) according to manufacturer's directions. In vitro transcripts of the cDNA were transfected into the human hepatoma cell line, HUH-7. […] Resulting cell lines were characterized for positive and negative strand RNA production and protein production over time.
A stable HCV replicon luciferase reporter cell line representing the genotype 1a H77 strain (Yanagi M, Purcell R H, Emerson S U, et al. Transcripts from a single full-length cDNA clone of hepatitis C virus are infectious when directly transfected into the liver of a chimpanzee. Proc Natl Acad Sci USA 1997; 94(16):8738-8743) was generated as described previously for the genotype 1b (Con1) replicon luciferase cell line. The replicon construct was modified by introducing mutations were introduced into the genes encoding the NS3 helicase domain (proline replaced by leucine at position 1496) and NS5A (serine to isoleucine at position 2204) to improve replication in cell culture.
HCV replicon luciferase assays were developed to monitor the inhibitory effects of compounds described in the disclosure on HCV genotypes 1a and 1b viral replication. HUH-7 cells, constitutively expressing the HCV replicon, were grown in Dulbecco's Modified Eagle Media (DMEM) (Gibco-BRL) containing 10% Fetal calf serum (FCS) (Sigma) and 1 mg/mL G418 (Gibco-BRL). Compounds were serially diluted 3 folds in DMSO for a twenty-point titration and subsequently transferred to sterile 384-well tissue-culture treated plates (Corning cat #3571). The plates were then seeded with 50 μL of cells at a density of 3.0×10^3 cells/well in DMEM containing 4% FCS (final DMSO concentration at 0.5%). After 3 days incubation at 37° C., cells were analyzed for Renilla Luciferase activity using the EnduRen as substrate (Promega cat #E6485). The EnduRen substrate was diluted in DMEM and then added to the plates to a final concentration of 7.5 μM. The plates were incubated for 2 hrs at 37° C. and then read immediately for 30 seconds with Viewlux Imager (PerkinElmer) using a luminescence program. To assess cytotoxicity of compounds, CC50 values were generated by multiplexing the EnduRen-containing plates with Cell Titer-Blue (Promega, cat # G8082). Cell-Titer Blue (3 μL) was added to each well and incubated for 8 hrs at 37° C. The fluorescence signal from each well was read, with an excitation wavelength at 525/10 nm and an emission wavelength of 598/10 nm, using the Viewlux Imager.
The EC50 values for compounds were calculated by using a four-parameter logistic equation: y=A+((B−A)/(1+((C/x)^D))), where A and B denotes minimal and maximal % inhibition, respectively, C is the EC50, D is the hill slope and x represents compound concentration.

Read-outs that look alike come from different tables or passages of the source.

As to `COC[C@@H]1CCCC/C=C\[C@@H]2C[C@@]2(C(=O)NS(=O)(=O)C2CC2)NC(=O)[C@@H]2C[C@@H](Oc3nc4cc(OC)ccc4nc3C(F)(F)F)CN2C(=O)[C@H]1NC(=O)OC(C)(C)C` [Compound 1020, tert-butyl ((2R,6S,7R,13aS,14aR,16aS,Z)-14a-((cyclopropylsulfonyl)carbamoyl)-2-((7-methoxy-3-(trifluoromethyl)quinoxalin-2-yl)oxy)-7-(methoxymethyl)-5,16-dioxo-1,2,3,5,6,7,8,9,10,11,13a,14,14a,15,16,16a-hexadecahydrocyclopropa[e]pyrrolo[1,2-a][1,4]diazacyclopentadecin-6-yl)carbamate], the EC50 in experiment [1] (read-out: LE_1b (EC50, range)) was in the range of 0.51 to 1 nM; in experiment [2] (read-out: LE_1a (EC50, range)), 1.01 to 5 nM.

Turning to `COC[C@@H]1CCCC/C=C\[C@@H]2C[C@@]2(C(=O)NS(=O)(=O)C2CC2)NC(=O)[C@@H]2C[C@@H](Oc3nc4cc(OC)ccc4nc3C(F)(F)F)CN2C(=O)[C@H]1NC(=O)OC(C)(C)C(F)(F)F` [Compound 1021, 1,1,1-trifluoro-2-methylpropan-2-yl ((2R,6S,7R,13aS,14aR,16aS,Z)-14a-((cyclopropylsulfonyl)carbamoyl)-2-((7-methoxy-3-(trifluoromethyl)quinoxalin-2-yl)oxy)-7-(methoxymethyl)-5,16-dioxo-1,2,3,5,6,7,8,9,10,11,13a,14,14a,15,16,16a-hexadecahydrocyclopropa[e]pyrrolo[1,2-a][1,4]diazacyclopentadecin-6-yl)carbamate], the EC50 in experiment [1] (read-out: LE_1b (EC50, range)) lay in the range of 0.1 to 0.5 nM; in experiment [2] (read-out: LE_1a (EC50, range)), 1.01 to 5 nM.

On to `COC[C@@H]1CCCC/C=C\[C@@H]2C[C@@]2(C(=O)NS(=O)(=O)C2CC2)NC(=O)[C@@H]2C[C@@H](Oc3nccc4cc(OC)c(F)cc34)CN2C(=O)[C@H]1NC(=O)OC(C)(C)C` [Compound 1022], for which the 50% effective concentration (EC50) was 1.01 to 5 nM in experiment [1] (read-out: LE_1b (EC50, range)) and 1.01 to 5 nM in experiment [2] (read-out: LE_1a (EC50, range)).

`COC[C@@H]1CCCC/C=C\[C@@H]2C[C@@]2(C(=O)NS(=O)(=O)C2CC2)NC(=O)[C@@H]2C[C@@H](Oc3nccc4cc(OC)c(F)cc34)CN2C(=O)[C@H]1NC(=O)OC(C)(C)C(F)(F)F` [Compound 1023]: the EC50 in experiment [1] (read-out: LE_1b (EC50, range)) fell in the range of 0.1 to 0.5 nM; in experiment [2] (read-out: LE_1a (EC50, range)), 1.01 to 5 nM.

With `COC[C@@H]1C[C@@H](C)CC/C=C\[C@@H]2C[C@@]2(C(=O)NS(=O)(=O)C2(CF)CC2)NC(=O)[C@@H]2C[C@@H](Oc3nc4cc(OC)ccc4nc3C(C)C)CN2C(=O)[C@H]1NC(=O)OC(C)(C)C` [Compound 1024, tert-butyl ((2R,6S,7R,9S,13aS,14aR,16aS,Z)-14a-(((1-(fluoromethyl)cyclopropyl)sulfonyl)carbamoyl)-2-((3-isopropyl-7-methoxyquinoxalin-2-yl)oxy)-7-(methoxymethyl)-9-methyl-5,16-dioxo-1,2,3,5,6,7,8,9,10,11,13a,14,14a,15,16,16a-hexadecahydrocyclopropa[e]pyrrolo[1,2-a][1,4]diazacyclopentadecin-6-yl)carbamate], the EC50 in experiment [1] (read-out: LE_1b (EC50, range)) fell in the range of 5.01 to 35 nM; in experiment [2] (read-out: LE_1a (EC50, range)), 35 to 620 nM.

Turning to `COC[C@@H]1C[C@H](C)CC/C=C\[C@@H]2C[C@@]2(C(=O)NS(=O)(=O)C2(CF)CC2)NC(=O)[C@@H]2C[C@@H](Oc3nc4cc(OC)ccc4nc3C(C)C)CN2C(=O)[C@H]1NC(=O)OC(C)(C)C` [Compound 1025, tert-butyl ((2R,6S,7R,9R,13aS,14aR,16aS,Z)-14a-(((1-(fluoromethyl)cyclopropyl)sulfonyl)carbamoyl)-2-((3-isopropyl-7-methoxyquinoxalin-2-yl)oxy)-7-(methoxymethyl)-9-methyl-5,16-dioxo-1,2,3,5,6,7,8,9,10,11,13a,14,14a,15,16,16a-hexadecahydrocyclopropa[e]pyrrolo[1,2-a][1,4]diazacyclopentadecin-6-yl)carbamate], the EC50 in experiment [1] (read-out: LE_1b (EC50)) is 1.38 nM; in experiment [1] (read-out: LE_1b (EC50, range)) it was 1.01 to 5 nM; in experiment [2] (read-out: LE_1a (EC50)), 7.01 nM; in experiment [2] (read-out: LE_1a (EC50, range)), 5.01 to 35 nM.

With `COC[C@@H]1C[C@@H](C)CC/C=C\[C@@H]2C[C@@]2(C(=O)NS(=O)(=O)C2(C)CC2)NC(=O)[C@@H]2C[C@@H](Oc3nc4cc(OC)ccc4nc3C(F)(F)F)CN2C(=O)[C@H]1NC(=O)OC(C)(C)C` [Compound 1027, tert-butyl ((2R,6S,7R,9S,13aS,14aR,16aS,Z)-2-((7-methoxy-3-(trifluoromethyl)quinoxalin-2-yl)oxy)-7-(methoxymethyl)-9-methyl-14a-(((1-methylcyclopropyl)sulfonyl)carbamoyl)-5,16-dioxo-1,2,3,5,6,7,8,9,10,11,13a,14,14a,15,16,16a-hexadecahydrocyclopropa[e]pyrrolo[1,2-a][1,4]diazacyclopentadecin-6-yl)carbamate], the EC50 lay within 1.01 to 5 nM in experiment [1] (read-out: LE_1b (EC50, range)) and 5.01 to 35 nM in experiment [2] (read-out: LE_1a (EC50, range)).

Consider `COC[C@@H]1C[C@H](C)CC/C=C\[C@@H]2C[C@@]2(C(=O)NS(=O)(=O)C2(C)CC2)NC(=O)[C@@H]2C[C@@H](Oc3nc4cc(OC)ccc4nc3C(F)(F)F)CN2C(=O)[C@H]1NC(=O)OC(C)(C)C` [Compound 1028, tert-butyl ((2R,6S,7R,9R,13aS,14aR,16aS,Z)-2-((7-methoxy-3-(trifluoromethyl)quinoxalin-2-yl)oxy)-7-(methoxymethyl)-9-methyl-14a-(((1-methylcyclopropyl)sulfonyl)carbamoyl)-5,16-dioxo-1,2,3,5,6,7,8,9,10,11,13a,14,14a,15,16,16a-hexadecahydrocyclopropa[e]pyrrolo[1,2-a][1,4]diazacyclopentadecin-6-yl)carbamate], for which the EC50 in experiment [1] (read-out: LE_1b (EC50, range)) is 0.1 to 0.5 nM; in experiment [2] (read-out: LE_1a (EC50, range)) it was 0.51 to 1 nM.

With `COC[C@@H]1C[C@@H](C)CC/C=C\[C@@H]2C[C@@]2(C(=O)NS(=O)(=O)C2(C)CC2)NC(=O)[C@@H]2C[C@@H](Oc3nc4cc(OC)ccc4nc3C(C)C)CN2C(=O)[C@H]1NC(=O)OC(C)(C)C` [Compound 1029, tert-butyl ((2R,6S,7R,9S,13aS,14aR,16aS,Z)-2-((3-isopropyl-7-methoxyquinoxalin-2-yl)oxy)-7-(methoxymethyl)-9-methyl-14a-(((1-methylcyclopropyl)sulfonyl)carbamoyl)-5,16-dioxo-1,2,3,5,6,7,8,9,10,11,13a,14,14a,15,16,16a-hexadecahydrocyclopropa[e]pyrrolo[1,2-a][1,4]diazacyclopentadecin-6-yl)carbamate], the concentration for a half-maximal effect (EC50) in experiment [1] (read-out: LE_1b (EC50)) was 0.63 nM; in experiment [1] (read-out: LE_1b (EC50, range)), 0.51 to 1 nM; in experiment [2] (read-out: LE_1a (EC50)), 1.78 nM; in experiment [2] (read-out: LE_1a (EC50, range)), 1.01 to 5 nM.

As for `COC[C@@H]1C[C@H](C)CC/C=C\[C@@H]2C[C@@]2(C(=O)NS(=O)(=O)C2(C)CC2)NC(=O)[C@@H]2C[C@@H](Oc3nc4cc(OC)ccc4nc3C(C)C)CN2C(=O)[C@H]1NC(=O)OC(C)(C)C` [Compound 1030, tert-butyl ((2R,6S,7R,9R,13aS,14aR,16aS,Z)-2-((3-isopropyl-7-methoxyquinoxalin-2-yl)oxy)-7-(methoxymethyl)-9-methyl-14a-(((1-methylcyclopropyl)sulfonyl)carbamoyl)-5,16-dioxo-1,2,3,5,6,7,8,9,10,11,13a,14,14a,15,16,16a-hexadecahydrocyclopropa[e]pyrrolo[1,2-a][1,4]diazacyclopentadecin-6-yl)carbamate], the EC50 lay in the range of 5.01 to 35 nM in experiment [1] (read-out: LE_1b (EC50, range)) and 35 to 620 nM in experiment [2] (read-out: LE_1a (EC50, range)).
